Converted amounts (≈) assume the structure as drawn. Structures can show the parent of a compound that is named as a salt. Where two headings read alike, the source gives them in different places. Each block holds one molecule with its values, some of them ahead of it.
Experiments:
[1] = system: α1 adrenergic receptor; settings: α1 adrenergic receptor antagonist; ChEMBL substructure search; cited from earlier work
[2] = system: Glucose Transporter; design: method as in earlier work; settings: ChEMBL substructure search; cited from earlier work
[3] = system: DHFR; settings: ChEMBL substructure search; cited from earlier work
[4] = system: endothelium-intact rat pulmonary arterial rings; assay: Vasorelaxation of PE pre-contracted endothelium-intact (E+) pulmonary arterial rings, organ bath; settings: Rattus norvegicus
[5] = system: endothelium-denuded rat pulmonary arterial rings; assay: Vasorelaxation of PE pre-contracted endothelium-denuded (E−) pulmonary arterial rings, organ bath
[6] = physchem; settings: for solubility thermodynamic at 6 h: pH 7.4, aqueous buffer, thermodynamic from solid
Experimental: The solubility of the compounds under investigation here were assessed in phosphate buffer at pH 7.4 using the equilibrium shake-flask method.
An equilibrium shake-flask technique was used to determine the solubility of samples in PBS at pH 7.4. Approximately 1 mg of sample was placed in a 10 mL glass screw top vial and dissolved in 1 mL of 0.02 M PBS at pH 7.4. The solution was sonicated for 1 h, followed by shaking for 6 h (IKA HS 260). The saturated solution was then filtered using a nylon syringe filter. A standard solution of each sample was prepared by dissolving a weighed amount of the sample in 1 mL of DMSO. The concentration of sample dissolved in the PBS solution was determined by comparing the peak area of the PBS and DMSO standard using an Agilent 1100 series HPLC with a Sunshell C8 column (Chromanik Technologies Inc., Osaka, Japan). A 100 µL injection of the aqueous sample and 5 µL of DMSO solution (pre-diluted 100 fold using DMSO) were used.

[7] = system: A549 cells; assay: MTT cytotoxicity assay in A549 cells; format: cell-based; settings: Homo sapiens
Experimental: A 3-[4,5-dimehyl-2-thiazolyl]-2,5-diphenyl-2H-tetrazoliumbromide (MTT) assay was utilized to assess the concentration-response curves for quinazoline analogues as previously reported. A549 cells (ATCC CCL-185, human alveolar basal epithelial cell line) were used to account for the general cytotoxicity of compounds. Cells were cultured in DMEM medium containing fetal bovine serum (FBS; 10%), penicillin (10 U/mL), and streptomycin (100 U/mL). The temperature was maintained at 37 °C with 5% CO2. Cells were seeded for 16–18 h in DMEM and incubated for 72 h with the test compounds. After incubation, MTT (5 mg/mL in normal saline) was added with DMEM and incubated for 3 h. Careful decantation of the medium and addition of DMSO (50 µL) was done. Absorbance values were recorded at 570 nm after 5 min mechanical shaking of the microplate (Sunrise microplate reader, Tecan).
The activity was presented as the inhibitory concentration required to produce a 50% response (IC50). Prism 6.0 GraphPad Software Inc., (San Diego, CA, USA) was utilized for data fitting. 0.5% DMSO was used as the negative control.

[8] = biological target: PDE-5 (Homo sapiens, UniProt O76074); settings: cited from earlier work
[9] = system: Aldehyde dehydrogenase 1A1; design: method as in earlier work; settings: ChEMBL substructure search; cited from earlier work
[10] = system: PE-induced contraction of endothelium-denuded pulmonary arterial rings; assay: Inhibition of phenylephrine (PE)-induced contraction in endothelium-denuded arterial rings; design: species or system rat; settings: Rattus norvegicus; 10 µM compound, 15 min pre-incubation, PE 0.0001–100 µM, E− rings; n = 3–5; read-out: % PE-Contraction Inhibition (SEM)
Experimental: These experiments were undertaken to assess the pharmacological activity of quinazoline analogues against the structurally related α1 receptor blocker (prazosin). In contrast to previous vasorelaxant experiments, this protocol was developed to determine the inhibitory effect of pre-incubated (15 min) inhibitors (10 µM) on the concentration-dependent vasoconstriction induced by cumulative addition of PE (0.0001–100 µM) in endothelium-denuded pulmonary arterial rings. Figure 5 illustrates the real time contractile response shown by the pulmonary arterial ring upon cumulative addition of PE, which evoked a concentration-dependent vasoconstriction, increasing the vessel’s tension.
After anesthesia with thiopental sodium (100 mg/kg, i.p.) (Anesthal®, Jagsonpsal Pharmaceutical Ltd., Haryana, India), rats were euthanized by exsanguination. Lungs were carefully excised, cleaned by the removal of connective tissue, and placed in cold physiological Krebs’ solution composed of (mM): NaCl 122; KCl 5; N-[2-hydroxyethyl] piperazine-N′-[2-ethane-sulfonic acid] (HEPES) 10; KH2PO4 0.5; NaH2PO4 0.5; MgCl2 1; CaCl2 1.8; and glucose 11 adjusted to pH 7.3 using 1 M NaOH. The pulmonary artery was isolated from the lungs and cut into rings approximately 2 mm in length before mounting in the organ bath chambers. Endothelial cells were mechanically removed in some experiments by gentle rubbing of the inner surface with forceps. Pulmonary arterial rings were mounted on intraluminal wires via stainless steel hooks maintaining the resting tension at 1 g and rings were equilibrated for 30 min before obtaining a stable contraction with 10^−5 M phenylephrine (PE). The rings were immersed in 10 mL baths containing physiological Krebs’ solution at 37 °C, which was continuously bubbled with air. Force transducers were connected with intraluminal wires to measure isometric tension via a Mac Lab A/D converter (Chart V5, A.D. Instruments, Castle Hill, NSW, Australia). The functional integrity of the endothelium in the vessels was confirmed by vasorelaxation of ≥70% with sequential addition of 10^−5 M acetylcholine (ACh) to pre-contracted vessels with 10^−5 M PE. Relaxations ≤30% to 10^−5 M ACh in vessels rubbed mechanically were considered successfully endothelium denuded.
The protocol included the assessment of the inhibitory vasoconstriction effect of quinazoline test compounds on endothelium-denuded arterial rings. Briefly, the arterial rings were treated with the α1-receptor blocker (prazosin) or test compound at a concentration of 10 µM for 15 min before construction of the second concentration response curve with cumulative addition of PE (0.0001–100 µM). The same conditions were used to test the effects of the solvent (DMSO 0.2%). The results were obtained in percentages by comparison of the maximum contraction without treatment with the contraction in the presence of the test compound [24, 36, 37].

SMILES: COc1cc2nc(N(C)CCCNC(=O)C3CCCO3)nc(N)c2cc1OC (stereo not drawn) [Alfuzosin]
Activity [1]: 3 nM

SMILES: COc1cc2nc(N(C)C3CCN(Cc4ccccc4)CC3)nc(N)c2cc1OC [CHEMBL527902]
Activity [2]: 4.087 µM

SMILES: COc1cccc2c(NCc3ccccc3)nc(NCCCN3CCCCC3C)nc12 (stereo not drawn) [CHEMBL546792]
Activity [2]: 4.102 µM

SMILES: Cc1ccccc1Nc1nc(Nc2ccccc2)c2ccccc2n1.Cl [CHEMBL582356]
Activity [2]: 4.496 µM

SMILES: CCOc1ccc2ccccc2c1-c1cc2nc(N)nc(N)c2cc1C [CHEMBL1818128]
Activity [3]: 4.5 nM

IC50 ([4]; Table S3, endothelium-intact, read-out: E+ Vaso. pIC50 (converted)): 4.47 µM
EC50 ([4]; endothelium-intact (E+) rings pre-contracted with 10^-5 M PE, cumulative 0.0001–30 µM, mean (SEM), n = 6, read-out: Vaso E+ EC50 µM (SEM)): 4.49 µM
IC50 ([5]; Table S3, endothelium-denuded, read-out: E- Vaso. pIC50 (converted)): 10.7 µM
EC50 ([5]; endothelium-denuded (E−) rings pre-contracted with 10^-5 M PE, cumulative 0.0001–30 µM, mean (SEM), n = 6, read-out: Vaso E− EC50 µM (SEM)): 10.7 µM
Log Sol ([6]; 6 h, pH 7.4): 0.51
Sol. pH7.4 (µM) ([6]; 6 h, pH 7.4): 3.27 µM
solubility thermodynamic at 6 h [6]: 1020 µg/mL (≈ 3.28 mM)
SMILES: Clc1cnc(Nc2ccccc2)nc1NCc1ccccc1 [Compound 14]
Emax ([4]; maximal relaxation, endothelium-intact rings, up to 30 µM, mean ± SEM): 67.8 ± 5.34%
Emax ([5]; maximal relaxation, endothelium-denuded rings, up to 30 µM, mean ± SEM): 54.7 ± 6.12%
IC50 ([7]; A549, MTT, 72 h incubation, read-out: A549 IC50, µM (S.D.)): > 100 µM
IC50 ([7]; Table S3, A549, read-out: Cytox. pIC50 (converted)): > 100 µM
PDE-5 activity (in words) [8]: borderline PDE-5 inactive

SMILES: COc1cc2nc(N3CCN(C(=O)c4ccco4)CC3)nc(N)c2cc1OC [PRAZOSIN HYDROCHLORIDE]
Activity [9]: 25 µM

Sol. pH7.4 mg/mL ([6]; 6 h, pH 7.4): 0.55 mg/mL
Sol. pH7.4 (µM) ([6]; 6 h, pH 7.4): 1.42 µM
solubility thermodynamic at 6 h [6]: 550 µg/mL
SMILES: COc1cc2nc(N3CCN(C(=O)c4ccco4)CC3)nc(N)c2cc1OC [Prazosin (PZN), Prazosin HCl, reference compound]
inhibition at 10 µM [10]: 98%
Activity [1]: 1 nM

SMILES: COc1cc(NCc2ccc3nc(N)nc(N)c3c2C)cc(OC)c1OC [Trimetrexate]
Activity [3]: 3 nM
